“Also recorded” adds a separate entry of the source.
What was measured:
E-box target, 5′-CACGTG = assay: yeast one-hybrid his3 reporter assay (colony growth on SD/-His/-Leu with 3-AT); assay type: cell-based, Saccharomyces cerevisiae; parameters: key to his3: +: positive; −: negative; settings: for his3 assay binding/colony growth: 30° C.; for binding to E-box / colony growth in yeast one-hybrid assay: 3-AT concentration not stated; for his3: positive/negative colony growth in yeast cells on plates
Description: A reporter strain was constructed such that the E-box target, 5′-CACGTG, resides upstream of the HIS3 reporter gene. The bHLH/bZIP hybrid was fused to the GAL4 transcriptional activation domain so that if a hybrid binds the E-box, the HIS3 protein will be expressed, thus allowing yeast to survive under conditions of histidine auxotrophy. Four tandem copies of the E-box (as shown in Table 9) were cloned into the pHISi-1 integrating reporter vector (Matchmaker One-Hybrid System, Clontech). After insertion of the E-box insert, the pHISi-1 vector was linearized and incorporated into the yeast genome by homologous recombination to generate Saccharomyces cerevisiae YM4271[pHISi-1/E-box]. To assess background due to the reporter, 3-aminotriazole (3-AT) was used as a competitive inhibitor of the HIS3 protein. Because it is possible that the reporter may be activated by endogenous factors, YM4271[pHISi-1/E-box] was subjected to titration with varying amounts of 3-AT to measure the concentration of 3-AT sufficient for suppression of background growth.
Transformation of the yeast cells was performed by electroporation. Following electroporation, cells were plated on minimal selective medium lacking leucine and histidine with the appropriate amount of 3-AT to suppress background.
(§1) A modified yeast one-hybrid system (Y1H) (Wang MM and Reed RR. 1993, Nature, 364, 121) was used to examine the E-box binding activity of the hybrids in vivo. Two S. cerevisiae reporter strains were constructed: four tandem copies of the E-box were cloned upstream of either the his3 or LacZ reporters. In the his3 assay, the His3 protein is expressed upon binding of our hybrids at E-box, allowing yeast to survive under histidine auxotrophy (FIG. 6). Surviving colonies are visualized on plates with media lacking histidine and in the presence of 3-aminotriazole (3-AT), a competitive inhibitor of His3 that reduces background growth. Yeast was plated on 10-60 mM 3-AT as a qualitative test of binding strength to E-box. Hybrids were also tested by two assays based on the LacZ reporter, which encodes β-galactosidase. (Serebriiskii, I. G. and Golemis, E. A. 2000 Anal. Biochem. 285, 1. The qualitative colony-lift filter assay uses X-gal as substrate for calorimetric visualization of protein-DNA binding (FIG. 7). Positives display vivid blue color. The ortho-nitrophenyl-β-galactoside (ONPG) liquid assay is quantitative (FIG. 8). However, this assay is not sensitive enough to quantify weak interactions accurately, (Mökli, N. and Auerbach, D. 2004 BioTechniques 36, 872) so the far more sensitive colony-lift assay is also typically performed.

E-box [1] = assay: LacZ ONPG liquid assay (β-galactosidase); assay type: cell-based, S. cerevisiae; settings: for β-galactosidase activity: ONPG assay, FIG. 8, averages of nine to twelve measurements
Description: The measurement of binding of the minimalist bZIP proteins to the target DNA sequence is a LacZ-based quantitative assay using ortho-nitrophenyl-beta-galactoside as calorimetric substrate (ONPG). Minimalist bZIP proteins with ONPG values exceeding 10 beta-galactosidase units are considered to be good binders to the target DNA sequence. Minimalist bZIP proteins with ONPG values below 10 beta-galactosidase units are ideal for selection and evolution,
as §1

E-box [2] = assay: LacZ colony-lift filter assay (X-gal); assay type: cell-based, S. cerevisiae; parameters: key to Colony-lift: +: blue; −: white; settings: for Colony-lift: LacZ-based X-gal colony-lift filter assay, blue/white screen; for colony-lift filter assay binding (color): X-gal substrate
Description: as §1

E-box [3] = settings: high-salt conditions, in vitro; cited from earlier work

Max-C/EBP: Max basic region, RIR linker, C/EBP leucine zipper; SEQ ID NO. 52, same sequence as SEQ ID No. 1 (ADKRAHHNALERKRRDHIKDSFHSRIRLEQKVLELTSDNDRLRKRVEQLSRELDTL; fusion protein)
his3 assay binding/colony growth (E-box target, 5′-CACGTG; 10 mM 3-AT): no binding | his3 assay binding/colony growth (E-box target, 5′-CACGTG; 10 mM 3-AT, listed as Max/C-EBP): Binding undetectable | binding to E-box / colony growth in yeast one-hybrid assay (E-box target, 5′-CACGTG): undetectable | his3 (E-box target, 5′-CACGTG): − | ONPG (E-box [1]; Table 11): 2.2 ± 0.2 β-galactosidase units | Colony-lift (E-box [2]): − | colony-lift filter assay binding (color) (E-box [2]): no binding (clear)

Arnt bHLH: Arnt bHLH alone (56 amino acids), literature, Huffman et al. 2001
Kd (E-box [3]): 56.2 ± 11.7 nM

native Max bHLHZ: native Max bHLHZ (residues 22-113, 92 amino acids), positive control
his3 assay binding/colony growth (E-box target, 5′-CACGTG; 20 mM 3-AT): strong binding/colony growth | his3 assay binding/colony growth (E-box target, 5′-CACGTG; 60 mM 3-AT, listed as Max bHLHZ): good colony growth | his3 assay binding/colony growth (E-box target, 5′-CACGTG; 60 mM 3-AT, listed as Native Max bHLHZ): strong binding/colony growth | his3 (E-box target, 5′-CACGTG): + | β-galactosidase activity (E-box [1]): 26.4±7.7 | ONPG (E-box [1]; Table 11): 26.4 ± 7.7 β-galactosidase units | ONPG (E-box [1]; Table 12): 26.41 ± 7.73 | Colony-lift (E-box [2]): + | colony-lift filter assay binding (color) (E-box [2]; listed as Max bHLHZ): intense blue color; also recorded: positive binding (dark blue) | colony-lift filter assay binding (color) (E-box [2]; listed as Native Max bHLHZ): positive binding (dark blue)

B1: Arnt1-C/EBP: Arnt basic region, RIR linker, C/EBP leucine zipper; SEQ ID No. 7 (protein)
chain: KFLRCDDDQMSNDKERFARENHSEIERRRRNKMTAYITERIRLEQKVLELTSDNDRLRKRVEQLSRELDTL
modifications: fusion protein
his3 assay binding/colony growth (E-box target, 5′-CACGTG; 10 mM 3-AT): able to bind to the E-box target DNA sequence

B2: Arnt-C/EBP: Arnt basic region and a portion of Helix 1 directly fused to the C/EBP zipper (protein)
chain: DQMSNDKERFARENHSEIERRRRNKMTAYITELSRIRLEQKVLELTSDNDRLRKRVEQLSRELDTL
modifications: Arnt-C/EBP
notes: Arnt basic region and a portion of Helix 1 directly fused to the C/EBP zipper
binding to E-box / colony growth in yeast one-hybrid assay (E-box target, 5′-CACGTG): no colony growth | β-galactosidase activity (E-box [1]): 2.9±0.3 | colony-lift filter assay binding (color) (E-box [2]): extremely pale color; also recorded: no binding (clear)

From patent publication US7745393B2, “Minimalist bZIP proteins and uses thereof” (priority 2005, dated 2010)
